Assay results as given in the supplement of paper PMC4862054.

Tests used:
BT-474 [1] = assay: normalised viability (% of control), CellTiter-Blue; higher = more viable cells (about 100 = DMSO control); conditions: 50 nM; incubation time: 72 h
Method: (§1)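 DSRT, CellTiter-Blue viability, 72 h incubation. Signal is normalised to DMSO and benzethonium chloride controls. Value is the normalised response at dose 3.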

BT-549 [2] = assay: as above; conditions: 50 nM; incubation time: 72 h
Method: as §1

CAL-120 [3] = assay: as above; conditions: 50 nM; incubation time: 72 h
Method: as §1

CAL-148 [4] = assay: as above; conditions: 5 nM; incubation time: 72 h
Method: as §1

CAL-51 [5] = assay: as above; conditions: 5 nM; incubation time: 72 h
Method: as §1

CAL-85-1 [6] = assay: as above; conditions: 5 nM; incubation time: 72 h
Method: as §1

DU-4475 [7] = assay: as above; conditions: 5 nM; incubation time: 72 h
Method: as §1

HCC1143 [8] = assay: as above; conditions: 50 nM; incubation time: 72 h
Method: as §1

HCC1599 [9] = assay: as above; conditions: 50 nM; incubation time: 72 h
Method: as §1

HCC1937 [10] = assay: as above; conditions: 50 nM; incubation time: 72 h
Method: as §1

HDQ-P1 [11] = assay: as above; conditions: 5 nM; incubation time: 72 h
Method: as §1

Hs578T [12] = assay: as above; conditions: 50 nM; incubation time: 72 h
Method: as §1

MDA-MB-231 [13] = assay: as above; conditions: 50 nM; incubation time: 72 h
Method: as §1

MDA-MB-436 [14] = assay: as above; conditions: 50 nM; incubation time: 72 h
Method: as §1

MDA-MB-453 [15] = assay: as above; conditions: 5 nM; incubation time: 72 h
Method: as §1

MDA-MB-468 [16] = assay: as above; conditions: 50 nM; incubation time: 72 h
Method: as §1

MFM-223 [17] = assay: as above; conditions: 50 nM; incubation time: 72 h
Method: as §1

SK-BR-3 [18] = assay: as above; conditions: 50 nM; incubation time: 72 h
Method: as §1

BT-474 [19] = assay: normalised viability (% of control), CellTiter-Blue; higher = more viable cells (about 100 = DMSO control); conditions: incubation time: 72 h
Method in brief: (§2)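 384-well plates were pre-loaded with compound in 5 µl medium before 20 µl of breast cancer cell suspension was seeded. Following 72 h incubation, 2.5 µl CellTiter-Blue reagent was added for 2 h at 37 °C. Fluorescence was read at 560/590 nm and plates were normalised to vehicle (100) and a positive kill control (0), checked by Z'-factor. Normalised viability is reported at a single listed concentration of the series.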

BT-549 [20] = assay: as above; conditions: incubation time: 72 h
Method in brief: as §2

CAL-120 [21] = assay: as above; conditions: incubation time: 72 h
Method in brief: as §2

CAL-148 [22] = assay: as above; conditions: incubation time: 72 h
Method in brief: as §2

CAL-51 [23] = assay: as above; conditions: incubation time: 72 h
Method in brief: as §2

CAL-85-1 [24] = assay: as above; conditions: incubation time: 72 h
Method in brief: as §2

DU-4475 [25] = assay: as above; conditions: incubation time: 72 h
Method in brief: as §2

HCC1143 [26] = assay: as above; conditions: incubation time: 72 h
Method in brief: as §2

HCC1599 [27] = assay: as above; conditions: incubation time: 72 h
Method in brief: as §2

HCC1937 [28] = assay: as above; conditions: incubation time: 72 h
Method in brief: as §2

HDQ-P1 [29] = assay: as above; conditions: incubation time: 72 h
Method in brief: as §2

Hs578T [30] = assay: as above; conditions: incubation time: 72 h
Method in brief: as §2

MDA-MB-231 [31] = assay: as above; conditions: incubation time: 72 h
Method in brief: as §2

MDA-MB-436 [32] = assay: as above; conditions: incubation time: 72 h
Method in brief: as §2

MDA-MB-453 [33] = assay: as above; conditions: incubation time: 72 h
Method in brief: as §2

MDA-MB-468 [34] = assay: as above; conditions: incubation time: 72 h
Method in brief: as §2

MFM-223 [35] = assay: as above; conditions: incubation time: 72 h
Method in brief: as §2

SK-BR-3 [36] = assay: as above; conditions: incubation time: 72 h
Method in brief: as §2

BT-474 [37] = assay: normalised viability (% of control), CellTiter-Blue; higher = more viable cells (100 = DMSO, 0 = benzethonium chloride kill control); conditions: incubation time: 72 h
Method: (§3)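 DSRT, CellTiter-Blue viability, 72 h incubation. Signal is normalised to DMSO and benzethonium chloride controls. Value is the normalised response at dose 1.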

BT-549 [38] = assay: as above; conditions: incubation time: 72 h
Method: as §3

CAL-120 [39] = assay: as above; conditions: incubation time: 72 h
Method: as §3

CAL-148 [40] = assay: as above; conditions: incubation time: 72 h
Method: as §3

CAL-51 [41] = assay: as above; conditions: incubation time: 72 h
Method: as §3

CAL-85-1 [42] = assay: as above; conditions: incubation time: 72 h
Method: as §3

DU-4475 [43] = assay: as above; conditions: incubation time: 72 h
Method: as §3

HCC1143 [44] = assay: as above; conditions: incubation time: 72 h
Method: as §3

HCC1599 [45] = assay: as above; conditions: incubation time: 72 h
Method: as §3

HCC1937 [46] = assay: as above; conditions: incubation time: 72 h
Method: as §3

HDQ-P1 [47] = assay: as above; conditions: incubation time: 72 h
Method: as §3

Hs578T [48] = assay: as above; conditions: incubation time: 72 h
Method: as §3

MDA-MB-231 [49] = assay: as above; conditions: incubation time: 72 h
Method: as §3

MDA-MB-436 [50] = assay: as above; conditions: incubation time: 72 h
Method: as §3

MDA-MB-453 [51] = assay: as above; conditions: incubation time: 72 h
Method: as §3

MDA-MB-468 [52] = assay: as above; conditions: incubation time: 72 h
Method: as §3

MFM-223 [53] = assay: as above; conditions: incubation time: 72 h
Method: as §3

SK-BR-3 [54] = assay: as above; conditions: incubation time: 72 h
Method: as §3

Q: Which results are given for `CC[C@@]1(O)C(=O)OCc2c1cc1n(c2=O)Cc2cc3ccccc3nc2-1` [Camptothecin]?
A: normalised viability (BT-474 [1]): 90.8%; normalised viability (BT-549 [2]): 67.3%; normalised viability (CAL-120 [3]): 65.5%; normalised viability (CAL-148 [4]): 70.3%; normalised viability (CAL-51 [5]): 99%; normalised viability (CAL-85-1 [6]): 93.7%; normalised viability (DU-4475 [7]): 82.2%; normalised viability (HCC1143 [8]): 50.9%; normalised viability (HCC1599 [9]): 90.2%; normalised viability (HCC1937 [10]): 45.8%; normalised viability (HDQ-P1 [11]): 99.4%; normalised viability (Hs578T [12]): 81.8%; normalised viability (MDA-MB-231 [13]): 78.9%; normalised viability (MDA-MB-436 [14]): 87.9%; normalised viability (MDA-MB-453 [15]): 103%; normalised viability (MDA-MB-468 [16]): 46.8%; normalised viability (MFM-223 [17]): 93.8%; normalised viability (SK-BR-3 [18]): 49.7%; normalised viability (BT-474 [19]; 5 nM): 101%; normalised viability (BT-474 [19]; 500 nM): 69.9%; normalised viability (BT-474 [19]; 5000 nM): 60.3%; normalised viability (BT-549 [20]; 5 nM): 82.1%; normalised viability (BT-549 [20]; 500 nM): 39.3%; normalised viability (BT-549 [20]; 5000 nM): 20.7%; normalised viability (CAL-120 [21]; 5 nM): 81.5%; normalised viability (CAL-120 [21]; 500 nM): 22.6%; normalised viability (CAL-120 [21]; 5000 nM): 10.3%; normalised viability (CAL-148 [22]; 1.5 nM): 102%; normalised viability (CAL-148 [22]; 15 nM): 47.9%; normalised viability (CAL-148 [22]; 50 nM): 30.9%; normalised viability (CAL-51 [23]; 1.5 nM): 103%; normalised viability (CAL-51 [23]; 15 nM): 57%; normalised viability (CAL-51 [23]; 50 nM): 31.1%; normalised viability (CAL-85-1 [24]; 1.5 nM): 98%; normalised viability (CAL-85-1 [24]; 15 nM): 87.3%; normalised viability (CAL-85-1 [24]; 50 nM): 74.8%; normalised viability (DU-4475 [25]; 1.5 nM): 117%; normalised viability (DU-4475 [25]; 15 nM): 60.2%; normalised viability (DU-4475 [25]; 50 nM): 44.7%; normalised viability (HCC1143 [26]; 5 nM): 78.3%; normalised viability (HCC1143 [26]; 500 nM): 33.5%; normalised viability (HCC1143 [26]; 5000 nM): 22.9%; normalised viability (HCC1599 [27]; 5 nM): 108%; normalised viability (HCC1599 [27]; 500 nM): 60.1%; normalised viability (HCC1599 [27]; 5000 nM): 29.5%; normalised viability (HCC1937 [28]; 5 nM): 92.6%; normalised viability (HCC1937 [28]; 500 nM): 29.6%; normalised viability (HCC1937 [28]; 5000 nM): 25.5%; normalised viability (HDQ-P1 [29]; 1.5 nM): 90.7%; normalised viability (HDQ-P1 [29]; 15 nM): 83.2%; normalised viability (HDQ-P1 [29]; 50 nM): 65.9%; normalised viability (Hs578T [30]; 5 nM): 112%; normalised viability (Hs578T [30]; 500 nM): 59.6%; normalised viability (Hs578T [30]; 5000 nM): 11.5%; normalised viability (MDA-MB-231 [31]; 5 nM): 98%; normalised viability (MDA-MB-231 [31]; 500 nM): 51.8%; normalised viability (MDA-MB-231 [31]; 5000 nM): 22.6%; normalised viability (MDA-MB-436 [32]; 5 nM): 97%; normalised viability (MDA-MB-436 [32]; 500 nM): 31.2%; normalised viability (MDA-MB-436 [32]; 5000 nM): 10.3%; normalised viability (MDA-MB-453 [33]; 1.5 nM): 114%; normalised viability (MDA-MB-453 [33]; 15 nM): 105%; normalised viability (MDA-MB-453 [33]; 50 nM): 77.4%; normalised viability (MDA-MB-468 [34]; 5 nM): 93%; normalised viability (MDA-MB-468 [34]; 500 nM): 12.1%; normalised viability (MDA-MB-468 [34]; 5000 nM): 6.62%; normalised viability (MFM-223 [35]; 5 nM): 108%; normalised viability (MFM-223 [35]; 500 nM): 79.8%; normalised viability (MFM-223 [35]; 5000 nM): 32.3%; normalised viability (SK-BR-3 [36]; 5 nM): 100%; normalised viability (SK-BR-3 [36]; 500 nM): 20.6%; normalised viability (SK-BR-3 [36]; 5000 nM): 8%

Q: What does the source list for `CCCC(CCC)C(=O)O` [Valproic acid] (1 nM)?
A: normalised viability (BT-474 [37]): 99%; normalised viability (BT-549 [38]): 98.6%; normalised viability (CAL-120 [39]): 105%; normalised viability (CAL-148 [40]): 103%; normalised viability (CAL-51 [41]): 99.8%; normalised viability (CAL-85-1 [42]): 95.3%; normalised viability (DU-4475 [43]): 109%; normalised viability (HCC1143 [44]): 99.1%; normalised viability (HCC1599 [45]): 83.6%; normalised viability (HCC1937 [46]): 115%; normalised viability (HDQ-P1 [47]): 119%; normalised viability (Hs578T [48]): 130%; normalised viability (MDA-MB-231 [49]): 97.7%; normalised viability (MDA-MB-436 [50]): 89.9%; normalised viability (MDA-MB-453 [51]): 108%; normalised viability (MDA-MB-468 [52]): 102%; normalised viability (MFM-223 [53]): 104%; normalised viability (SK-BR-3 [54]): 103%

Q: `COc1cc(Nc2ncc(F)c(Nc3ccc4c(n3)NC(=O)C(C)(C)O4)n2)cc(OC)c1OC` [R406] (1 nM) was tested. Which normalised viability (BT-474 [37]) did it give?
A: 117%

Q: What about the normalised viability (BT-549 [38]) of the same molecule?
A: 97%

Q: What about the normalised viability (CAL-120 [39]) of the same molecule?
A: 83.5%

Q: And the normalised viability (CAL-148 [40])?
A: 110%

Q: What about the normalised viability (CAL-51 [41]) of the same molecule?
A: 106%

Q: And the normalised viability (CAL-85-1 [42])?
A: 84.8%

Q: What about the normalised viability (DU-4475 [43]) of the same molecule?
A: 112%

Q: What about the normalised viability (HCC1143 [44]) of the same molecule?
A: 91.6%

Q: And the normalised viability (HCC1599 [45])?
A: 101%

Q: What about the normalised viability (HCC1937 [46]) of the same molecule?
A: 91.6%

Q: What about the normalised viability (HDQ-P1 [47]) of the same molecule?
A: 116%

Q: What about the normalised viability (Hs578T [48]) of the same molecule?
A: 116%

Q: What about the normalised viability (MDA-MB-231 [49]) of the same molecule?
A: 95.7%

Q: What about the normalised viability (MDA-MB-436 [50]) of the same molecule?
A: 92.1%

Q: And the normalised viability (MDA-MB-453 [51])?
A: 106%

Q: And the normalised viability (MDA-MB-468 [52])?
A: 94.1%

Q: And the normalised viability (MFM-223 [53])?
A: 93.3%

Q: What about the normalised viability (SK-BR-3 [54]) of the same molecule?
A: 102%
